In ChEMBL document CHEMBL1144857, “4-Biphenyl and 2-naphthyl substituted 6,7-dimethoxytetrahydroisoquinoline derivatives as potent P-gp modulators” (Bioorg Med Chem, 2008):
The source made the active and inactive calls. The calls are words filed in the database; no cut-off is given here.

Experiments:
[1] = (§1) Apparent permeability from basolateral to apical side of human Caco-2 cell membrane; type: ADME, cell-based
[2] = (§2) Apparent permeability from apical to basolateral side of human Caco-2 cell membrane; type: ADME, cell-based
[3] = Inhibition of human P-gp mediated [3H]vinblastine transport activity in human Caco-2 cells; type: cell-based; conditions: Caco-2, 2 h
[4] = target: ATP-dependent translocase ABCB1 (Homo sapiens, UniProt P08183); test: Activation of human P-gp ATPase in human Caco-2 cells at 100 uM; type: cell-based; conditions: caco-2, 100 µM
ATP-dependent translocase ABCB1, sequence (P08183 whole entry): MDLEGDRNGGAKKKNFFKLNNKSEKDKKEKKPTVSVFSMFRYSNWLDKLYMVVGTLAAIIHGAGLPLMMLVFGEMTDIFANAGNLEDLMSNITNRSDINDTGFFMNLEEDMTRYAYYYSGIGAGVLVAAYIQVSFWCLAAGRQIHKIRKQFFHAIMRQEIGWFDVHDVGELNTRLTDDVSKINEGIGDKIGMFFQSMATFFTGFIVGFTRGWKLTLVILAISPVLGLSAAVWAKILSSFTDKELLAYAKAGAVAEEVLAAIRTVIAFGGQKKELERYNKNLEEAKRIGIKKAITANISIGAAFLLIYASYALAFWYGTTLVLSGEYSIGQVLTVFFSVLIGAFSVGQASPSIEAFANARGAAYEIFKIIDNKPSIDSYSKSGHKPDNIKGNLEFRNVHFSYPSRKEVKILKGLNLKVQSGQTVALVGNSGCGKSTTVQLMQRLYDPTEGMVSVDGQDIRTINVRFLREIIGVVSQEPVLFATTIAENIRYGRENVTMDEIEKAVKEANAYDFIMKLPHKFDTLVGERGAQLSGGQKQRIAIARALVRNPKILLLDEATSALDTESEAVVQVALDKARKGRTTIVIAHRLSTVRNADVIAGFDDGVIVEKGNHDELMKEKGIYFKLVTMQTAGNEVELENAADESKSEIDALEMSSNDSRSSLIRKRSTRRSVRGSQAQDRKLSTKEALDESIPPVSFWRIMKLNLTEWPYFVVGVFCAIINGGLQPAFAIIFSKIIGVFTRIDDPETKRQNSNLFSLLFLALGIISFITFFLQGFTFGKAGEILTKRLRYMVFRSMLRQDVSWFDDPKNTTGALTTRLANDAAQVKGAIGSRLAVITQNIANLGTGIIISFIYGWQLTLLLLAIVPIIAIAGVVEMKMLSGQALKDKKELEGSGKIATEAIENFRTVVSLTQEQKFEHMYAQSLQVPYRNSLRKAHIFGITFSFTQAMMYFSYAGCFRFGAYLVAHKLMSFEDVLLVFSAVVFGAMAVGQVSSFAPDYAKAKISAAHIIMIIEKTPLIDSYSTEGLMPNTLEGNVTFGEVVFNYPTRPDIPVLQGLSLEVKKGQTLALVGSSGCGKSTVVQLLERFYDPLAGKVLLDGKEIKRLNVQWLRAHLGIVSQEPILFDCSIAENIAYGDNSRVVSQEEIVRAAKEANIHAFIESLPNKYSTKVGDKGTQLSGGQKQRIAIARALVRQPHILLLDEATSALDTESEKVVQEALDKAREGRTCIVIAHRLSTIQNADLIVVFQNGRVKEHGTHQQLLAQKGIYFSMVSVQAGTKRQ

[5] = Activity at P-pg
[6] = target: T1, Broad substrate specificity ATP-binding cassette transporter ABCG2 (Homo sapiens, UniProt Q9UNQ0); test: Inhibition of human BCRP mediated [3H]mitoxantrone transport activity in human Caco-2 cells; type: cell-based
T1 sequence (Q9UNQ0 whole entry): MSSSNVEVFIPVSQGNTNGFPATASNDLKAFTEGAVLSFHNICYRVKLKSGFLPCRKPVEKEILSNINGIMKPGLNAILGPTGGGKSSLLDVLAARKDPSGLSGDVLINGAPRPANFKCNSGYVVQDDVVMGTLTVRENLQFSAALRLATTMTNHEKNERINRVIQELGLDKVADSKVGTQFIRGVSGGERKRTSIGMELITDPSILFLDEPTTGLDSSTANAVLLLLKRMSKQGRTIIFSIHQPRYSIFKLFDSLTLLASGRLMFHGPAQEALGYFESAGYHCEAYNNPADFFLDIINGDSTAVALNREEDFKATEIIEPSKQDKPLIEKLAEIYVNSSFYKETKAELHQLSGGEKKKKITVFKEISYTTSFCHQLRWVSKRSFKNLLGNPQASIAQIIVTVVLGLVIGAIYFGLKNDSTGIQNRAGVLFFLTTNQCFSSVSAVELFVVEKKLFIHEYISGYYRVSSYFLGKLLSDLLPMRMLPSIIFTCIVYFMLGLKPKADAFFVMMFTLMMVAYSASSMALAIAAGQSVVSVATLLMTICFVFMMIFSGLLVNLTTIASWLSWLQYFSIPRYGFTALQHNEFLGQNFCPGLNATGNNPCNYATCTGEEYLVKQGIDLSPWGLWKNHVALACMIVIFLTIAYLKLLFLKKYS

[7] = tested on: Caco-2; test: as §1; type: ADME, cell-based
[8] = tested on: Caco-2; test: as §2; type: ADME, cell-based
[9] = tested on: Caco-2; test: Ratio of permeability from […] side of human Caco-2 cell membrane; type: ADME, cell-based
[10] = tested on: MCF7; test: Antiproliferative activity against adriamycin resistant human MCF7 cells after 24 hrs by MTT assay; type: functional, cell-based
[11] = target: T2, BCRP (ABCG2) (Homo sapiens, UniProt Q9UNQ0); test: Inhibition of human BCRP mediated [3H]mitoxantrone transport activity in human Caco-2 cells at 100 uM; type: cell-based; conditions: Caco-2, probe [3H]mitoxantrone
T2 sequence (Q9UNQ0 whole entry): T1 sequence (Q9UNQ0 whole entry)

COc1cc2c(cc1OC)CN(Cc1ccccc1-c1ccccc1)CC2
Papp B→A [1]: 197 ×10⁻⁶ cm/s | Papp A→B [2]: 21.6 ×10⁻⁶ cm/s | EC50 [3]: 15000 nM | Activity [4]: Not Active

COc1cc2c(cc1OC)CN(C(=O)c1ccc(-c3ccccc3)cc1)CC2
Papp B→A [1]: 244 ×10⁻⁶ cm/s | Papp A→B [2]: 60.1 ×10⁻⁶ cm/s | EC50 [3]: 28000 nM | Activity [4]: 35%

COc1cccc2c1CCCC2CCCN1CCN(C2CCCCC2)CC1 (stereo not drawn)
EC50 [5]: 550 nM

COc1cc2c(cc1OC)CN(Cc1ccc3cc(O)ccc3c1)CC2
Papp B→A [1]: 235 ×10⁻⁶ cm/s | Papp A→B [2]: 35.3 ×10⁻⁶ cm/s | EC50 [3]: 450 nM | Activity [4]: 10%

COc1cc2c(cc1OC)CN(C(=O)c1ccc3cc(O)ccc3c1)CC2
Papp B→A [1]: 190 ×10⁻⁶ cm/s | Papp A→B [2]: 25.1 ×10⁻⁶ cm/s | EC50 [3]: 650 nM | Activity [4]: 40%

COc1cc2c(cc1OC)CN(CC/C=C1\CCCc3c(OC)cccc31)CC2
EC50 [3]: 1640 nM | Activity [6]: Active | Activity [4]: Not Active

COc1cc2c(cc1OC)CN(Cc1ccc3ccccc3c1)CC2
Papp B→A [1]: 180 ×10⁻⁶ cm/s | Papp A→B [2]: 21.6 ×10⁻⁶ cm/s | EC50 [3]: 800 nM | Activity [4]: Not Active

COc1ccc2cc(CN3CCc4cc(OC)c(OC)cc4C3)ccc2c1
Papp [7]: 67.7 ×10⁻⁶ cm/s | Papp [8]: 18.7 ×10⁻⁶ cm/s | Ratio [9]: 3.6 | EC50 [3]: 300 nM | Activity [4]: Not Active

COc1cc2c(cc1OC)CN(C(=O)c1ccc3ccccc3c1)CC2
Papp B→A [1]: 415 ×10⁻⁶ cm/s | Papp A→B [2]: 32.4 ×10⁻⁶ cm/s | EC50 [3]: 20000 nM | Activity [4]: 10%

COc1cc2c(cc1OC)CN(Cc1cccc(-c3ccccc3)c1)CC2
Papp B→A [1]: 366 ×10⁻⁶ cm/s | Papp A→B [2]: 30.1 ×10⁻⁶ cm/s | EC50 [3]: 6500 nM | Activity [4]: Not Active

COc1ccc2cc(C(=O)N3CCc4cc(OC)c(OC)cc4C3)ccc2c1
Papp B→A [1]: 123 ×10⁻⁶ cm/s | Papp A→B [2]: 19.3 ×10⁻⁶ cm/s | EC50 [3]: 18000 nM | Activity [4]: Not Active

COc1cc2c(cc1OC)CN(Cc1ccc(-c3ccccc3)cc1)CC2
Papp B→A [1]: 141 ×10⁻⁶ cm/s | Activity [10]: inactive | Papp A→B [2]: 77.7 ×10⁻⁶ cm/s | EC50 [3]: 100 nM | Activity [4]: Not Active

COc1cc2c(cc1OC)CN(CCc1ccc(NC(=O)c3cccc4c(=O)c5cccc(OC)c5[nH]c34)cc1)CC2
EC50 [3]: 2000 nM | Activity [4]: Not Active

COc1cc2c(cc1OC)CN(C(=O)c1ccc(-c3ccc(O)cc3)cc1)CC2
Papp B→A [1]: 277 ×10⁻⁶ cm/s | Papp A→B [2]: 28 ×10⁻⁶ cm/s | EC50 [3]: 3500 nM | Activity [4]: Not Active

COc1cc2c(cc1OC)CN(Cc1ccc(-c3ccc(O)cc3)cc1)CC2
Papp B→A [1]: 60.9 ×10⁻⁶ cm/s | Activity [10]: inactive | Papp A→B [2]: 47.6 ×10⁻⁶ cm/s | EC50 [3]: 50 nM | inhibition at 100 µM [11]: 19% | Activity [4]: Not Active
